Data from paper PMC3744471, “Mitochondria Are the Target Organelle of Differentiation-Inducing Factor-3, an Anti-Tumor Agent Isolated from Dictyostelium Discoideum” (PLoS ONE, 2013).

Assays:
[1] = tested on: mitochondria in HeLa cells; test: Mitochondrial morphology by fluorescence microscopy; format: cell-based, human; settings: BODIPY-DIF-3 20 µM 1 day, Bu-DIF-3 5 µM, CCCP 10 µM 3 days
Procedure: For high magnification multi-color imaging, cells were incubated for the appropriate times with 2 ml of DMEM-FBS (HeLa and 3T3-L1) or MEM-α-FBS (LM8) containing various compounds in 35-mm plastic dishes (tissue culture treated µ-Dish; ibidi, Martinsried, Germany). The cells were washed twice with 2 ml of PBS(–), submerged in 2 ml of Hepes buffer (pH 7.4), and observed at room temperature with a Keyence BZ-9000 fluorescence microscope (Osaka, Japan) equipped with an oil immersion 100× lens (CFI Plan Apo VC100XH) and multi-filters that can distinguish four fluorescent probes simultaneously. Original digitized images of z-stack sections were taken at 0.4- µm intervals, which were then treated (haze-reduced) with the Keyence BZ analyzer software (for deconvolution fluorescence imaging), and compiled into 3D images; when 3D images were constructed, nonlinear adjustment was performed to obtain clear (high contrast) images without haze. All color images are presented in pseudo colors.

[2] = tested on: mouse liver mitochondria; test: Mitochondrial oxygen consumption (Clark-type oxygen electrode); format: biochemical; settings: for PC100 (µM) for Mito. O2 consumption: 100% promoting concentration: doubles the basal rate of oxygen consumption, 30°C; for Effect on basal rate of O2 consumption: 1–100 µM
Procedure: Mitochondria were isolated from mouse liver (ICR; 7–10 week-old females) by differential centrifugation as described previously. Cells were homogenized in a Potter glass homogenizer with H-Buffer (250 mM sucrose, 10 mM Tris-HCl pH 7.4), and centrifuged at 800g for 1 min at 4°C. The supernatant was centrifuged at 6,000g for 5 min, and the resulting pellet, the crude mitochondrial fraction, was suspended in H-Buffer. The suspension was layered over a discontinuous sucrose gradient consisting of 1.1 M and 1.6 M sucrose in a Tris buffer (10 mM Tris-HCl pH 7.4), and centrifuged for 3 h at 90,000g at 4°C. The interface was collected in Tris buffer and centrifuged at 6,000g for 5 min. The resulting pellets were suspended in Tris buffer and used for experiments after confirming the presence of the mitochondrial marker cytochrome c.
Mitochondrial oxygen consumption was determined using a Clark-type oxygen electrode (Strathkelvin Instruments Ltd., North Lanarkshire, Scotland) as described, [39]. The mitochondria-enriched fraction was incubated at 30°C in oxygen measurement buffer (225 mM mannitol, 75 mM sucrose, 10 mM KCl, 0.1 mM EDTA, 3 mM phosphate, 5 mM succinate, 5 mM glutamate, and 20 mM Tris-HCl pH 7.4) in the presence or absence of various concentrations of the DIF-like molecules or CCCP. After recording ‘State 4’ of the respiration reaction, an aliquot of ADP was added to a final concentration of 200 µM to induce ‘State 3’. The PC100 (100% promoting concentration) of each additive was defined as the drug concentration that doubled the basal rate of oxygen consumption during State 3, which was calculated from the dose-response plot for the rate of oxygen consumption (Figure 8).

[3] = tested on: 3T3-L1 cells; test: Cell growth assay (Alamar blue), 3T3-L1; format: cell-based, mouse; settings: for Effect on cell growth in 3T3-L1 cells: BODIPY-DIF-3 5–20 µM, CCCP 2–10 µM, 4 days; for IC50: Mus musculus, 72 h, 3T3-L1 cells, 3 days, Alamar blue
Procedure: HeLa, LM8, and 3T3-L1 cells were cultured for 3 days at 2.5–5×10^3 cells/well in 12-well plates with each well filled with 1 ml of DMEM-FBS (for HeLa and 3T3-L1) or MEM-α-FBS (for LM8) together with drugs at various concentrations. Then, the incubation media were discarded and the cells were washed with 1 ml of PBS(–) (20 mM phosphate buffered saline, pH 7.4) and incubated with 1 ml of fresh DMEM-FBS (HeLa and 3T3-L1) or MEM-α-FBS (LM8) containing 5% (v/v) of Alamar blue (a cell number indicator; Wako Pure Chemical Industries, Osaka, Japan) until the color changed. The relative cell number was assessed by measuring absorbance at 570 nm (reference at 595 nm) as described previously, [14]; DIF-related compounds and BODIPY-conjugated compounds hardly disturbed the cell number assessment with Alamar blue (data not shown), probably because the additive compounds were washed out when cell number was assessed. For determination of the 50% inhibitory concentration (IC50) of each drug, the cells were cultured for 3 days in the presence of each drug at various concentrations. Relative cell numbers were determined for each concentration for each drug and the IC50 was determined from the dose-response curves.
Supplementary file pone.0072118.s002.tif: Figure S2 Effects of BODIPY-DIF-3 and CCCP on cell growth, and cellular localization of BODIPY-DIF-3 in 3T3-L1 cells. (A) Cells were incubated for 4 days with 5–20 µM of BODIPY-DIF-3 (closed circles) or 2–10 µM of CCCP (closed triangles), and relative cell number was assessed by the use of Alamar blue. Data are the mean values and SD (bars) of three independent experiments. (B) Cells were incubated for 0.5 h or 3 days with 20 µM of BODIPY-DIF-3, washed free of the additive, and observed microscopically. (C) Cells were incubated for 0.5 h with BODIPY-DIF-3 (20 µM), Hoechst (0.1 µg/ml), and MitoTracker (0.1 µM), washed free of the additives, and observed by using a high-magnification fluorescence microscope. (D) Cells were incubated for 3 days with BODIPY-DIF-3 (20 µM) and then for 0.5 h with Hoechst (0.1 µg/ml) and MitoTracker (0.1 µM). Cells were washed free of the additives and observed by using a high-magnification fluorescence microscope. (TIF) Click here for additional data file.

[4] = tested on: cyclin D1 and cyclin D3 in HeLa cells; test: Western blotting of cyclin D expression; format: cell-based, human; settings: 20 h, DIF-3 20 µM, Bu-DIF-3 5–7.5 µM, BODIPY-DIF-3 20 µM, CCCP 10 µM, azide 0.01%
Procedure: HeLa cells were incubated for 20 h with 1 ml of DMEM-FBS containing the indicated additives in 12-well plates (2–4×10^5 cells/well), washed twice with PBS(–), harvested by adding 100–200 µl of an SDS-sample buffer solution (in proportion to cell density: relative cell number), sonicated (heated), and used for SDS-PAGE. Western blot transfer and immunoblotting were performed as described previously, by using a primary antibody for cyclin D1, cyclin D2, cyclin D3, or GAPDH, and a second antibody, an alkaline phosphatase-conjugated anti-mouse or anti-rabbit IgG antibody. […] Visualized protein bands were then digitized and quantified by using Adobe Photoshop CS4 (version 11.0) (Adobe, San Jose, CA, USA) and ImageJ Software (version 1.4) (http://rsb.info.nih.gov/ij/).

`N#CC(C#N)=NNc1cccc(Cl)c1` [CCCP, carbonyl cyanide m-chlorophenylhydrazone, reference compound] was tested, and the Mitochondrial swelling [1] was “Mitochondrial swelling was induced in most HeLa cells”, the “Effect on mitochondrial O2 consumption” value ([2]; 0.1–1 µM) was “promoted mitochondrial O2 consumption in a dose-dependent manner” and the “PC100 (µM) for Mito. O2 consumption” value [2] was 0.43 µM. The “Effect on cell growth in 3T3-L1 cells” value [3] was “dose-dependently suppressed cell growth”, the IC50 [3] was 7.5 µM and the “Expression of cyclin D1” value [4] was “significantly suppressed”. The “Expression of cyclin D3” value [4] was “significantly suppressed”.
`CCCCCC(=O)c1c(O)cc(OCCCCNC(=O)CCC2=[N+]3C(=Cc4c(C)cc(C)n4[B-]3(F)F)C=C2)c(Cl)c1O` [BODIPY-DIF-3] was tested, and the Mitochondrial swelling [1] was “caused many mitochondria to swell in most cells within 1 day”, the “Effect on basal rate of O2 consumption” value [2] was “dose-dependently promoted” and the “PC100 (µM) for Mito. O2 consumption” value [2] was 25 µM. For the same compound, the “Effect on cell growth in 3T3-L1 cells” value [3] was “dose-dependently suppressed cell growth”, the IC50 [3] was 20 µM and the “Expression of cyclin D1” value [4] was “significantly decreased”. For the same compound, the “Expression of cyclin D3” value [4] was “significantly decreased”.
In the case of `CCCCCC(=O)c1c(O)cc(OCCCC)c(Cl)c1O` [Bu-DIF-3, 1-(3-chloro-2,6-dihydroxy-4-butoxyphenyl)hexan-1-one], the Mitochondrial swelling [1] is reported as “the mitochondria in all cells swelled greatly”, the “Effect on basal rate of O2 consumption” value [2] is reported as “dose-dependently promoted” and the “PC100 (µM) for Mito. O2 consumption” value [2] is reported as 1.7 µM. The IC50 [3] was 4.3 µM, the “Expression of cyclin D1” value [4] was “significantly decreased” and the “Expression of cyclin D3” value [4] was “significantly decreased”.
With `CCCCCC(=O)c1c(O)cc(OC)c(Cl)c1O` [DIF-3, 1-(3-chloro-2,6-dihydroxy-4-methoxyphenyl)hexan-1-one] the Mitochondrial swelling [1] was “the mitochondria in all cells swelled greatly”, the “Effect on basal rate of O2 consumption” value [2] was “dose-dependently promoted” and the “PC100 (µM) for Mito. O2 consumption” value [2] was 12 µM. For the same compound, the IC50 [3] was > 20 µM, the “Expression of cyclin D1” value [4] was “significantly decreased” and the “Expression of cyclin D3” value [4] was “significantly decreased”.
